PubChem BioAssay AID1963841 (Molecular Pharmacology Branch, DTP, NCI, 2024)
Several values for one entry are separate records, joined by “and”; a condition that tells them apart may be missing. Identical values can stand only once.

System: 439559-082-T-J2-PDC spheroid viability
Assay: Anticancer human tumor 439559-082-T-J2-PDC patient-derived colon adenocarcinoma cell line growth inhibition [POLQ]
Conditions: spheroids with HUVEC and MSC; for viability, T/C: stronger effect = lower value
Procedure: Multicellular complex tumor spheroid response to Polymerase (POL) inhibitors (novobiocin, ART-558, RP6685) in combination with a variety of drugs and investigational agents in selected tumor cell lines
The POL inhibitors (novobiocin, ART-558, and RP6685) were evaluated both individually and in combination with standard of care and investigational anticancer small molecules within a complex spheroid model of solid tumors. . Complex spheroids include a stromal component modeled by human endothelial cells (HUVEC) and fibroblasts modeled by human mesenchymal stem cells (MSCs). The concentration ranges selected for each drug and investigational agent were based upon clinically achievable concentrations if the clinical Cmax of the agent was known.
Compounds. The drugs and investigational agents: novobiocin (NSC847541), ART-558 (NSC835418), RP-6685 (NSC848927), peposertib (NSC802822), ceralasertib (NSC780249), elimusertib (NSC800525), camonsertib (NSC841442), AZD-1390 (NSC803789), olaparib (NSC753686), talazoparib (NSC767125), rucaparib (NSC756644), sotorasib (NSC818433), MRTX-1133 (NSC836407), SN-38 (NSC673596), topotecan (NSC609699), epotoside (NSC141540), doxorubicin (NSC123127), gemcitabine (NSC613327), 5-fluorouracil (NSC19893), paclitaxel (NSC125973), vemurafenib (NSC761431), MSA-2 (NSC828583), SN-011 (NSC837082), adavosertib (NSC754352), prexasertib (NSC758257), carboplatin (NSC241240) and oxaliplatin (NSC266046), were obtained from the National Cancer Institute (NCI) Developmental Therapeutics Program Chemical Repository (21). The FDA-approved anticancer drug set is available from the Developmental Therapeutics Program at https://dtp.cancer.gov/organization/dscb/obtaining/. […] The stock solutions were prepared in dimethyl sulfoxide (DMSO, Sigma-Aldrich, St. Louis, MO, cat. D2650), except for the platinum compounds which were prepared in saline (Quality Biological, Gaithersburg, MD, cat. 114-055-101), at 800-fold the tested concentration and stored at -70 degrees C prior to their use. All drugs and investigational agents were tested over a range starting from a high concentration at or near the clinical Cmax and decreasing in half-log increments. If the clinical Cmax for an agent had not been determined, the highest concentration tested was 10 microM, except for SN-38, which was tested at a high concentration of 1 microM.
Cell Culture. All cells were maintained in an incubator at 37 degrees C and 5% CO2 with 95% humidity. The PDC lines were cultured according to standard operating procedures established by the NCI PDMR (https://pdmr.cancer.gov). Table 3 of the manuscript, lists the cell lines along with the number of the three cell types plated to form the mct-spheroids and media for tumor cell growth. After thawing, all PDC lines, except 997537-175-T-J1-PDC and 415267-285-R-J2-PDC, were cultured in Matrigel-coated flasks prepared with a working solution of 1X Ham's F-12 nutrient mix, without supplementation (Thermo Fisher Scientific, cat. 11765054), 100 U/mL penicillin-streptomycin (Thermo Fisher Scientific, cat. 15140122), and 2.5% Matrigel (Corning Inc., Corning, NY, cat. 354248) for the first three passages. The two PDC lines 997537-175-T-J1-PDC and 415267-285-R-J2-PDC were cultured on uncoated flasks. The 857933-349-R-J2-PDC line was cultured in 6C/Colon 1B media containing advanced DMEM/F-12 (Thermo Fisher Scientific, cat. 12634028), 10 mM HEPES (Thermo Fisher Scientific, cat. 15630080), 1X GlutaMAX supplement (Thermo Fisher Scientific, cat. 35050061), 0.1 mg/mL primocin (InvivoGen, San Diego, CA, cat. ant-pm-2), 10% defined fetal bovine serum, heat inactivated (HyClone Laboratories Inc., Logan, UT, cat. SH30070.03HI), 50% L-WRN conditioned media (ATCC, cat. CRL-3276), 1.25 mM N-Acetyl-L-cysteine (Sigma-Aldrich, cat. A9165), 10 mM nicotinamide (Sigma-Aldrich, cat. N0636), 1X B-27 supplement (Thermo Fisher Scientific, cat. 17504044), 1X N-2 supplement (Thermo Fisher Scientific, cat. […]
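Note: spheroids exposed to compounds for seven days before readout.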
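Throughout, for viability, T/C: 100% = DMSO vehicle control viability.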

Q: For `COc1cccc2c1C(=O)c1c(O)c3c(c(O)c1C2=O)CC(O)(C(=O)CO)CC3OC1CC(N)C(O)C(C)O1` (stereo not given), which viability, T/C (compound 0.0316 µM) is on record?
A: 94.9% and 90.3% and 99.1%

Q: And the viability, T/C (compound 0.1 µM)?
A: 86.6% and 79.9% and 96.6%

Q: And the viability, T/C (compound 0.316 µM)?
A: 79.8% and 66.8% and 88%

Q: And the viability, T/C (compound 1 µM)?
A: 72.6% and 63.7% and 70.9%

Q: What about the viability, T/C (compound 3.16 µM) of the same compound?
A: 65% and 58.3% and 60.4%

Q: And the viability, T/C (compound 10 µM)?
A: 52.5% and 69.4% and 49.1%

Q: What about the IC50 (curve of compound) of the same compound?
A: > 10 µM and 9.81 µM

Q: What does the source list for `Nc1ccn(C2OC(CO)C(O)C2(F)F)c(=O)n1` (stereo not given)?
A: viability, T/C (compound 0.0316 µM): 84.5% and 77.1% and 81%; viability, T/C (compound 0.1 µM): 68.2% and 74.4% and 72%; viability, T/C (compound 0.316 µM): 58.2% and 59% and 56.6%; viability, T/C (compound 1 µM): 49.8% and 43.5% and 39.9%; viability, T/C (compound 3.16 µM): 36.5% and 35.1% and 30.8%; viability, T/C (compound 10 µM): 31.1% and 26.7% and 27.3%; IC50 (curve of compound): 0.767 µM and 0.656 µM and 0.496 µM

Q: `COc1ccc([C@@H](O)c2cc(-c3ncnc4cc(N5CCOCC5)ccc34)c(F)cc2Cl)nn1` + COC1C(OC(N)=O)C(O)C(Oc2ccc3c(O)c(NC(=O)c4ccc(O)c(CC=C(C)C)c4)c(=O)oc3c2C)OC1(C)C was tested. Which IC50 (curve of first compound, second compound 0.0316 µM) did it give?
A: > 10 µM

Q: And the IC50 (curve of first compound, second compound 0.1 µM)?
A: > 10 µM

Q: What about the IC50 (curve of first compound, second compound 0.316 µM) of the same compound?
A: > 10 µM

Q: And the IC50 (curve of first compound, second compound 1 µM)?
A: > 10 µM

Q: And the IC50 (curve of first compound, second compound 3.16 µM)?
A: > 10 µM

Q: And the IC50 (curve of first compound, second compound 10 µM)?
A: > 10 µM

Q: What about the viability, T/C (second compound 0.0316 µM, first compound 0.0316 µM) of the same compound?
A: 101%

Q: And the viability, T/C (second compound 0.0316 µM, first compound 0.1 µM)?
A: 96.5%

Q: What about the viability, T/C (second compound 0.0316 µM, first compound 0.316 µM) of the same compound?
A: 99.1%

Q: What about the viability, T/C (second compound 0.0316 µM, first compound 1 µM) of the same compound?
A: 95.1%

Q: What about the viability, T/C (second compound 0.0316 µM, first compound 3.16 µM) of the same compound?
A: 90.7%

Q: And the viability, T/C (second compound 0.0316 µM, first compound 10 µM)?
A: 77.3%

Q: And the viability, T/C (second compound 0.1 µM, first compound 0.0316 µM)?
A: 109%

Q: What about the viability, T/C (second compound 0.1 µM, first compound 0.1 µM) of the same compound?
A: 96.4%

Q: What about the viability, T/C (second compound 0.1 µM, first compound 0.316 µM) of the same compound?
A: 93.5%

Q: And the viability, T/C (second compound 0.1 µM, first compound 1 µM)?
A: 95.1%

Q: And the viability, T/C (second compound 0.1 µM, first compound 3.16 µM)?
A: 83.3%

Q: What about the viability, T/C (second compound 0.1 µM, first compound 10 µM) of the same compound?
A: 71.7%

Q: And the viability, T/C (second compound 0.316 µM, first compound 0.0316 µM)?
A: 107%

Q: And the viability, T/C (second compound 0.316 µM, first compound 0.1 µM)?
A: 101%

Q: What about the viability, T/C (second compound 0.316 µM, first compound 0.316 µM) of the same compound?
A: 92.6%

Q: What about the viability, T/C (second compound 0.316 µM, first compound 1 µM) of the same compound?
A: 91.2%

Q: What about the viability, T/C (second compound 0.316 µM, first compound 3.16 µM) of the same compound?
A: 89.9%

Q: And the viability, T/C (second compound 0.316 µM, first compound 10 µM)?
A: 74.3%

Q: What about the viability, T/C (second compound 1 µM, first compound 0.0316 µM) of the same compound?
A: 100%

Q: What about the viability, T/C (second compound 1 µM, first compound 0.1 µM) of the same compound?
A: 94%

Q: What about the viability, T/C (second compound 1 µM, first compound 0.316 µM) of the same compound?
A: 92.9%

Q: And the viability, T/C (second compound 1 µM, first compound 1 µM)?
A: 87.9%

Q: And the viability, T/C (second compound 1 µM, first compound 3.16 µM)?
A: 86.5%

Q: And the viability, T/C (second compound 1 µM, first compound 10 µM)?
A: 70.9%

Q: What about the viability, T/C (second compound 3.16 µM, first compound 0.0316 µM) of the same compound?
A: 96.6%

Q: And the viability, T/C (second compound 3.16 µM, first compound 0.1 µM)?
A: 91.8%

Q: What about the viability, T/C (second compound 3.16 µM, first compound 0.316 µM) of the same compound?
A: 97.7%

Q: And the viability, T/C (second compound 3.16 µM, first compound 1 µM)?
A: 92%

Q: And the viability, T/C (second compound 3.16 µM, first compound 3.16 µM)?
A: 82.3%

Q: What about the viability, T/C (second compound 3.16 µM, first compound 10 µM) of the same compound?
A: 79.5%

Q: What about the viability, T/C (second compound 10 µM, first compound 0.0316 µM) of the same compound?
A: 102%

Q: And the viability, T/C (second compound 10 µM, first compound 0.1 µM)?
A: 99.9%

Q: And the viability, T/C (second compound 10 µM, first compound 0.316 µM)?
A: 86.5%

Q: And the viability, T/C (second compound 10 µM, first compound 1 µM)?
A: 86.4%

Q: And the viability, T/C (second compound 10 µM, first compound 3.16 µM)?
A: 78%

Q: What about the viability, T/C (second compound 10 µM, first compound 10 µM) of the same compound?
A: 76.5%

Q: `COc1cc(C2c3cc4c(cc3C(OC3OC5COC(C)OC5C(O)C3O)C3COC(=O)C23)OCO4)cc(OC)c1O` (stereo not given) was tested. Which viability, T/C (compound 0.0316 µM) did it give?
A: 92.4% and 99.3% and 94.1%

Q: What about the viability, T/C (compound 0.1 µM) of the same compound?
A: 95.6% and 95.3% and 97.8%

Q: What about the viability, T/C (compound 0.316 µM) of the same compound?
A: 92.7% and 82% and 98.2%

Q: What about the viability, T/C (compound 1 µM) of the same compound?
A: 90.5% and 88.4% and 95.4%

Q: What about the viability, T/C (compound 3.16 µM) of the same compound?
A: 82.1% and 81.8% and 89.5%

Q: What about the viability, T/C (compound 10 µM) of the same compound?
A: 73.7% and 72.7% and 70.3%

Q: What about the IC50 (curve of compound) of the same compound?
A: > 10 µM

Q: What does the source list for `CC[C@@]1(O)C(=O)OCc2c1cc1n(c2=O)Cc2cc3c(CN(C)C)c(O)ccc3nc2-1`?
A: viability, T/C (compound 0.000316 µM): 102% and 87.1% and 100%; viability, T/C (compound 0.001 µM): 101% and 94.2% and 99%; viability, T/C (compound 0.00316 µM): 100% and 111% and 96.2%; viability, T/C (compound 0.01 µM): 92.8% and 100% and 106%; viability, T/C (compound 0.0316 µM): 95.1% and 96.1% and 93.2%; viability, T/C (compound 0.1 µM): 88.2% and 77.2% and 75.9%; IC50 (curve of compound): > 0.1 µM
